Test results as given in patent publication US3996150A, “Ester compounds” (Lever Brothers Company, priority 1975, dated 1976).

Legend:
[1] = Terg-O-Tometer stain removal test of detergent product containing the detergent solvent, rated visually; parameters: key: 0: complete removal; 1: Very slight remaining stain; 2: Slight remaining stain; 3: Moderate stain removal; 4: Poor stain removal; 5: Very poor stain removal; 6: Equal to original stain; conditions: 4.0% detergent solvent in detergent product; 5% solution 15 min, then 20 min wash at 0.144%; 120° F, 180 ppm hardness
Method: Four Dacron/cotton (65-35%) Khaki permanent press (Pants weight) test pieces (41/2 inches×6 inches) are first soiled by adding 3 drops of dirty crankcase motor oil on the center of the cloth and the stain allowed to set for one hour. The test cloths are then washed in the Terg-O-Tometerat 120° F, 180 ppm (2:1 Ca^+^+/Mg^+^+) hardness, 90 cycles per minute agitation, with a 5% solution of the detergent product described below (i.e., 50 g/liter) for 15 minutes and then hand squeezed to remove excess water. Finally the cloths are given a 20 minute wash at the standard use level (e.g. 0.144%) under the same conditions followed by a 1 minute rinse. After drying the washed cloths, the degree of stain removal is rated visually according to the scale below:
1 = Very slight remaining stain
2 = Slight remaining stain
3 = Moderate stain removal
5 = Very poor stain removal
6 = Equal to original stain
Ten such formulations utilizing the following "Detergent Solvents" were prepared and evaluated as described above: […]

[2] = parent compound from which the esters are derived; cited from earlier work
[3] = under both aerobic and anaerobic conditions; cited from earlier work
[4] = parent compound from which the esters are derived; cited from earlier work; remark: listed apart in the source
[5] = Cold resistance of plasticized polyvinyl chloride film; assay type: physicochemical; conditions: PVC film 1.3 mm, 65 parts plasticizer per 100 parts S-PVC resin
Method: Tri(2-ethylhexyl) carboxymethyloxysuccinate was incorporated as a plasticizer in the preparation of polyvinyl chloride film as follows
Using a mixing roller at 170° (7 min.) followed by post-pressing the film at 170° C under contact pressure for 2 minutes, a good plasticized film (1.3 mm) of polyvinyl chloride was obtained. Cold resistance was -39° C compared to -36° C for a control PVC film made using di-2-ethylhexyl phthalate (DOP) as the plasticizer.

Compound	Visual Grading Code (degree of stain removal) [1]	also measured
COC(=O)COC(CC(=O)OC)C(=O)OC (centres unmarked) [B, trimethyl carboxymethyloxysuccinate]	2	–
CCCCCCCCOC(=O)COC(CC(=O)OCCCCCCCC)C(=O)OCCCCCCCC (centres unmarked) [H, trioctyl carboxymethyloxysuccinate]	2	–
O=C(O)COC(CC(=O)O)C(=O)O (centres unmarked) [carboxymethyloxysuccinic acid]	–	toxicity [2]: non-toxic; biodegradability [3]: completely biodegradable; teratogenicity [4]: non-teratogenic
CCCOC(=O)COC(CC(=O)OCCC)C(=O)OCCC (centres unmarked) [D, tripropyl carboxymethyloxysuccinate]	1	–
CCCCOC(=O)COC(CC(=O)OCCCC)C(=O)OCCCC (centres unmarked) [E, tributyl carboxymethyloxysuccinate]	2	–
CCCCCCOC(=O)COC(CC(=O)OCCCCCC)C(=O)OCCCCCC (centres unmarked) [F, trihexyl carboxymethyloxysuccinate]	1	–
CCCCC(CC)COC(=O)COC(CC(=O)OCC(CC)CCCC)C(=O)OCC(CC)CCCC (centres unmarked) [G, tri(2-ethylhexyl) carboxymethyloxysuccinate]	2	Cold resistance [5]: -39 °C
CCOC(=O)COC(CC(=O)OCC)C(=O)OCC (centres unmarked) [C, triethyl carboxymethyloxysuccinate]	1	–
CCCCCCCCCCCCOC(=O)COC(CC(=O)OCCCCCCCCCCCC)C(=O)OCCCCCCCCCCCC (centres unmarked) [J, tridodecyl carboxymethyloxysuccinate]	2	–
CCCCC(CC)COC(=O)c1ccccc1C(=O)OCC(CC)CCCC (centres unmarked) [di-2-ethylhexyl phthalate, reference compound]	–	Cold resistance [5]: -36 °C
CCCCOC(=O)c1ccccc1C(=O)OCCCC [A, dibutyl phthalate, reference compound]	2	–
